Results from PubChem BioAssay (NCI).
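Grown in 96-well plates, cells were treated for 48 hours with each compound at five concentrations. Insufficient inhibition: endpoint recorded as highest concentration tested. GI50 is the concentration that inhibits growth by half. TGI: total growth inhibition.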

Tests used:
Test in all cases: DTP human tumour cell line panel, 48 h
[1] = test system: 786-0 renal
[2] = test system: A498 renal
[3] = test system: A549 NSCLC
[4] = test system: ACHN renal
[5] = test system: CAKI-1 renal
[6] = test system: CCRF-CEM leukemia
[7] = test system: COLO 205 colon
[8] = test system: DU-145 prostate
[9] = test system: HCC-2998 colon
[10] = test system: HCT-116 colon
[11] = test system: HCT-15 colon
[12] = test system: HOP-92 NSCLC
[13] = test system: HT29 colon
[14] = test system: K-562 leukemia
[15] = test system: KM12 colon
[16] = test system: LOX IMVI melanoma
[17] = test system: M14 melanoma
[18] = test system: MCF7 breast
[19] = test system: MDA-MB-231 breast
[20] = test system: MDA-MB-435
[21] = test system: MDA-N
[22] = test system: MOLT-4 leukemia
[23] = test system: NCI-H226 lung
[24] = test system: NCI-H23 lung
[25] = test system: NCI-H460 lung
[26] = test system: NCI-H522 lung
[27] = test system: NCI/ADR-RES ovarian
[28] = test system: OVCAR-4 ovarian
[29] = test system: OVCAR-5 ovarian
[30] = test system: OVCAR-8 ovarian
[31] = test system: PC-3 prostate
[32] = test system: RPMI-8226 leukemia
[33] = test system: RXF 393 renal
[34] = test system: SF-268 CNS
[35] = test system: SF-295 CNS
[36] = test system: SK-MEL-2 melanoma
[37] = test system: SK-MEL-28 melanoma
[38] = test system: SK-MEL-5 melanoma
[39] = test system: SK-OV-3 ovarian
[40] = test system: SN12C renal
[41] = test system: SNB-19 CNS
[42] = test system: SR leukemia
[43] = test system: SW-620 colon
[44] = test system: TK-10 renal
[45] = test system: U251 CNS
[46] = test system: UACC-257 melanoma
[47] = test system: UACC-62 melanoma
[48] = test system: UO-31 renal
[49] = test system: BT-549 breast
[50] = test system: EKVX NSCLC
[51] = test system: HL-60(TB) leukemia
[52] = test system: HOP-62 NSCLC
[53] = test system: HS 578T breast
[54] = test system: IGROV1 ovarian
[55] = test system: MALME-3M melanoma
[56] = test system: OVCAR-3 ovarian
[57] = test system: SF-539 CNS
[58] = test system: SNB-75 CNS
[59] = test system: T-47D breast

Compound: O=C1CSc2nc3ccccc3n2/C=N\N1
- TGI [1]: > 100 µM
- TGI [2]: > 100 µM
- TGI [3]: > 100 µM
- TGI [4]: > 100 µM
- TGI [5]: > 100 µM
- TGI [6]: > 100 µM
- TGI [7]: > 100 µM
- TGI [8]: > 100 µM
- TGI [9]: > 100 µM
- TGI [10]: > 100 µM
- TGI [11]: > 100 µM
- TGI [12]: > 100 µM
- TGI [13]: > 100 µM
- TGI [14]: > 100 µM
- TGI [15]: > 100 µM
- TGI [16]: > 100 µM
- TGI [17]: > 100 µM
- TGI [18]: > 100 µM
- TGI [19]: > 100 µM
- TGI [20]: > 100 µM
- TGI [21]: > 100 µM
- TGI [22]: > 100 µM
- TGI [23]: > 100 µM
- TGI [24]: > 100 µM
- TGI [25]: > 100 µM
- TGI [26]: > 100 µM
- TGI [27]: > 100 µM
- TGI [28]: > 100 µM
- TGI [29]: > 100 µM
- TGI [30]: > 100 µM
- TGI [31]: > 100 µM
- TGI [32]: > 100 µM
- TGI [33]: > 100 µM
- TGI [34]: > 100 µM
- TGI [35]: > 100 µM
- TGI [36]: > 100 µM
- TGI [37]: > 100 µM
- TGI [38]: > 100 µM
- TGI [39]: > 100 µM
- TGI [40]: > 100 µM
- TGI [41]: > 100 µM
- TGI [42]: > 100 µM
- TGI [43]: > 100 µM
- TGI [44]: > 100 µM
- TGI [45]: > 100 µM
- TGI [46]: > 100 µM
- TGI [47]: > 100 µM
- TGI [48]: > 100 µM

Compound: CCN1C(=S)N(CC)C2C1NC(=S)N2/N=C/C=C/c1ccccc1 (configuration not stated)
- GI50 [1]: 5.19 µM
- TGI [1]: 19.2 µM
- GI50 [2]: 0.641 µM
- TGI [2]: 4.67 µM
- GI50 [3]: 2.52 µM
- TGI [3]: 17.8 µM
- GI50 [4]: 4.87 µM
- TGI [4]: 18.9 µM
- GI50 [49]: 5.44 µM
- TGI [49]: 21.7 µM
- GI50 [5]: 0.776 µM
- TGI [5]: 18.6 µM
- GI50 [6]: 1.26 µM
- TGI [6]: 12 µM
- GI50 [7]: 1.11 µM
- TGI [7]: 4.4 µM
- GI50 [8]: 2.42 µM
- TGI [8]: 12.2 µM
- GI50 [50]: 4.19 µM
- TGI [50]: 34.7 µM
- GI50 [9]: 2.84 µM
- TGI [9]: 16.9 µM
- GI50 [10]: 1.3 µM
- TGI [10]: 12.4 µM
- GI50 [11]: 0.77 µM
- TGI [11]: 14.3 µM
- GI50 [51]: 0.387 µM
- TGI [51]: 1.79 µM
- GI50 [52]: 2.26 µM
- TGI [52]: 15.7 µM
- GI50 [12]: 4 µM
- TGI [12]: 20.9 µM
- GI50 [53]: 2.11 µM
- TGI [53]: 8.96 µM
- GI50 [13]: 0.511 µM
- TGI [13]: 12.1 µM
- GI50 [54]: 2.15 µM
- TGI [54]: 16.3 µM
- GI50 [14]: 0.382 µM
- TGI [14]: 14.1 µM
- GI50 [15]: 1.21 µM
- TGI [15]: 14.7 µM
- GI50 [16]: 2.81 µM
- TGI [16]: 17 µM
- GI50 [17]: 0.879 µM
- TGI [17]: 12.9 µM
- GI50 [55]: 2.09 µM
- TGI [55]: 17.8 µM
- GI50 [18]: 0.513 µM
- TGI [18]: 16.4 µM
- GI50 [19]: 2.75 µM
- TGI [19]: 14.6 µM
- GI50 [20]: 0.272 µM
- TGI [20]: 0.856 µM
- GI50 [22]: 1.02 µM
- TGI [22]: 25.4 µM
- GI50 [23]: 6.73 µM
- TGI [23]: 24.4 µM
- GI50 [24]: 4.49 µM
- TGI [24]: 22 µM
- GI50 [25]: 1.79 µM
- TGI [25]: 12.7 µM
- GI50 [26]: 0.739 µM
- TGI [26]: 3.7 µM
- GI50 [27]: 1.54 µM
- TGI [27]: 12.6 µM
- GI50 [56]: 0.52 µM
- TGI [56]: 4.97 µM
- GI50 [28]: 5.4 µM
- TGI [28]: 19.6 µM
- GI50 [29]: 3.92 µM
- TGI [29]: 16.9 µM
- GI50 [30]: 4.47 µM
- TGI [30]: 23.5 µM
- GI50 [31]: 1.52 µM
- TGI [31]: 16 µM
- GI50 [32]: 1.97 µM
- TGI [32]: 6.64 µM
- GI50 [33]: 1.57 µM
- TGI [33]: 6.58 µM
- GI50 [34]: 5.51 µM
- TGI [34]: 27.2 µM
- GI50 [35]: 1.04 µM
- TGI [35]: 11.8 µM
- GI50 [57]: 1.67 µM
- TGI [57]: 5.4 µM
- GI50 [36]: 1.62 µM
- TGI [36]: 13.7 µM
- GI50 [37]: 4.81 µM
- TGI [37]: 21 µM
- GI50 [38]: 1.19 µM
- TGI [38]: 10.7 µM
- GI50 [39]: 2.4 µM
- TGI [39]: 14.7 µM
- GI50 [40]: 3.49 µM
- TGI [40]: 16.8 µM
- GI50 [41]: 2.8 µM
- TGI [41]: 20.2 µM
- GI50 [58]: 1.09 µM
- TGI [58]: 5.65 µM
- GI50 [42]: 0.347 µM
- TGI [42]: 5.92 µM
- GI50 [43]: 0.803 µM
- TGI [43]: 17.8 µM
- GI50 [59]: 3.55 µM
- TGI [59]: 18.2 µM
- GI50 [44]: 7.65 µM
- TGI [44]: 23.1 µM
- GI50 [45]: 2.31 µM
- TGI [45]: 13 µM
- GI50 [46]: 3.68 µM
- TGI [46]: 19.5 µM
- GI50 [47]: 1.37 µM
- TGI [47]: 14.9 µM
- GI50 [48]: 3.55 µM
- TGI [48]: 18.3 µM

Compound: C/C(=N/NC(=S)Nc1ccccc1Cl)c1cccc(/C(C)=N\NC(=S)Nc2ccccc2Cl)n1
- TGI [1]: > 100 µM
- TGI [2]: > 100 µM
- TGI [3]: > 100 µM
- TGI [4]: > 100 µM
- TGI [5]: > 100 µM
- TGI [6]: > 100 µM
- TGI [7]: > 100 µM
- TGI [8]: > 100 µM
- TGI [50]: > 100 µM
- TGI [9]: > 100 µM
- TGI [10]: 49.4 µM
- TGI [11]: > 100 µM
- TGI [51]: > 100 µM
- TGI [52]: > 100 µM
- TGI [12]: > 100 µM
- TGI [53]: > 100 µM
- TGI [13]: > 100 µM
- TGI [54]: > 100 µM
- TGI [14]: > 100 µM
- TGI [15]: > 100 µM
- TGI [16]: > 100 µM
- TGI [17]: > 100 µM
- TGI [55]: > 100 µM
- TGI [18]: 93.7 µM
- TGI [19]: 75.2 µM
- TGI [20]: > 100 µM
- TGI [21]: > 100 µM
- TGI [22]: > 100 µM
- TGI [23]: > 100 µM
- TGI [24]: > 100 µM
- TGI [25]: > 100 µM
- TGI [26]: > 100 µM
- TGI [27]: > 100 µM
- TGI [56]: > 100 µM
- TGI [28]: > 100 µM
- TGI [29]: > 100 µM
- TGI [30]: 81.8 µM
- TGI [31]: > 100 µM
- TGI [32]: > 100 µM
- TGI [33]: > 100 µM
- TGI [34]: > 100 µM
- TGI [35]: > 100 µM
- TGI [57]: > 100 µM
- TGI [36]: > 100 µM
- TGI [37]: > 100 µM
- TGI [38]: > 100 µM
- TGI [39]: > 100 µM
- TGI [40]: > 100 µM
- TGI [41]: > 100 µM
- TGI [58]: > 100 µM
- TGI [42]: > 100 µM
- TGI [43]: > 100 µM
- TGI [59]: > 100 µM
- TGI [44]: > 100 µM
- TGI [45]: > 100 µM
- TGI [46]: > 100 µM
- TGI [47]: > 100 µM
- TGI [48]: > 100 µM
